Results published in ChEMBL document CHEMBL5500406, “Discovery of Novel Proteolysis-Targeting Chimera Molecules as Degraders of Programmed Cell Death-Ligand 1 for Breast Cancer Therapy” (J Med Chem, 2024).
pKd: −log10 of the molar value. Calls of active or inactive are those of the source. The calls are words filed in the database; no cut-off is given here.

Assays:
4T1 [1] = test: Antitumor activity against mouse 4T1 cells allografted in BALB/c mouse assessed as increase in GzmB mRNA level in tumor at 60 mg/kg, ip qd for 15 days by qRT-PCR analysis; type: functional, organism-based; conditions: time 15.0 day
4T1 [2] = test: Antitumor activity against mouse 4T1 cells assessed as increase in cell mortality rate at 0.078 uM pretreated with compound followed by co-culture of CD3/CD28-activated PBMC cells measured after 24 hrs by LDH assay relative to control; type: functional
[3] = target: T1, Protein cereblon/Programmed cell death 1 ligand 1 (Mus musculus) (UniProt Q9EP73+Q8C7D2); test: PROTAC activity at CRBN/PD-L1 in mouse 4T1 cells assessed as protein degradation at 0.078 to 0.312 uM incubated for 24 hrs by flow cytometry; type: cell-based; conditions: dose 0.078-0.312 µM
T1 sequence (Q9EP73 19-290 limits assumed, one chain of several): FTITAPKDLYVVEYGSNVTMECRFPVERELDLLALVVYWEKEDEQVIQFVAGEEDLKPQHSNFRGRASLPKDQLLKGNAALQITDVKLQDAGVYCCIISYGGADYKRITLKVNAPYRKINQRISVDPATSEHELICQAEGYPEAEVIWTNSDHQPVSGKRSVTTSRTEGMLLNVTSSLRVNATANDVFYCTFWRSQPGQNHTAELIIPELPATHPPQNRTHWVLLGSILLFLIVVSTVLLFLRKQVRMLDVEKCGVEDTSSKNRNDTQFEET

[4] = Toxicity in BALB/c mouse allografted with mouse 4T1 cells assessed as pathological change in liver at 60 mg/kg, ip qd for 15 days in presence of Paclitaxel by H and E staining based analysis; type: organism-based; conditions: in vivo, 360 h, time 15 day
[5] = Toxicity in BALB/c mouse allografted with mouse 4T1 cells assessed as pathological change in kidney at 30 to 60 mg/kg, ip qd for 15 days by H and E staining based analysis; type: organism-based; conditions: in vivo, 360 h, dose 30-60 mg/kg, time 15 day
[6] = Toxicity in BALB/c mouse allografted with mouse 4T1 cells assessed as pathological change in liver at 30 to 60 mg/kg, ip qd for 15 days by H and E staining based analysis; type: organism-based; conditions: in vivo, 360 h, dose 30-60 mg/kg, time 15 day
[7] = Toxicity in BALB/c mouse allografted with mouse 4T1 cells assessed as abnormality in biochemical analysis at 30 to 60 mg/kg, ip qd for 15 days; type: organism-based; conditions: in vivo, 360 h, dose 30-60 mg/kg, time 15 day
[8] = Toxicity in BALB/c mouse allografted with mouse 4T1 cells assessed as body weight loss at 30 to 60 mg/kg, ip qd for 15 days; type: organism-based; conditions: in vivo, 360 h, dose 30-60 mg/kg, time 15 day
4T1 [9] = test: Antitumor activity against mouse 4T1 cells allografted in BALB/c mouse assessed as increase in CD4+ T cells infiltration in tumor at 30 to 60 mg/kg, ip qd for 15 days by IHC analysis; type: functional, organism-based; conditions: dose 30-60 mg/kg, time 15.0 day
[10] = Toxicity in BALB/c mouse allografted with mouse 4T1 cells assessed as pathological change in heart at 60 mg/kg, ip qd for 15 days in presence of Paclitaxel by H and E staining based analysis; type: organism-based; conditions: in vivo, 360 h, time 15 day
[11] = Toxicity in BALB/c mouse allografted with mouse 4T1 cells assessed as pathological change in spleen at 60 mg/kg, ip qd for 15 days in presence of Paclitaxel by H and E staining based analysis; type: organism-based; conditions: in vivo, 360 h, time 15 day
[12] = Toxicity in BALB/c mouse allografted with mouse 4T1 cells assessed as abnormality in routine blood analysis at 60 mg/kg, ip qd for 15 days in presence of Paclitaxel; type: organism-based; conditions: in vivo, 360 h, time 15 day
4T1 [13] = test: Antitumor activity against mouse 4T1 cells allografted in BALB/c mouse at 60 mg/kg, ip qd for 15 days in presence of Paclitaxel relative to control; type: functional; conditions: 4T1, 360 h, time 15 day, read-out: TGI
4T1 [14] = test: Antitumor activity against mouse 4T1 cells assessed as increase in cell mortality rate at 0.312 uM pretreated with compound followed by co-culture of CD3/CD28-activated PBMC cells measured after 24 hrs by LDH assay relative to control; type: functional
Protein cereblon = target: T2, Protein cereblon (Mus musculus, UniProt Q8C7D2); test: Binding affinity to mouse CRBN assessed as dissociation constant incubated for 15 mins by MST assay
T2 sequence (Q8C7D2 whole entry): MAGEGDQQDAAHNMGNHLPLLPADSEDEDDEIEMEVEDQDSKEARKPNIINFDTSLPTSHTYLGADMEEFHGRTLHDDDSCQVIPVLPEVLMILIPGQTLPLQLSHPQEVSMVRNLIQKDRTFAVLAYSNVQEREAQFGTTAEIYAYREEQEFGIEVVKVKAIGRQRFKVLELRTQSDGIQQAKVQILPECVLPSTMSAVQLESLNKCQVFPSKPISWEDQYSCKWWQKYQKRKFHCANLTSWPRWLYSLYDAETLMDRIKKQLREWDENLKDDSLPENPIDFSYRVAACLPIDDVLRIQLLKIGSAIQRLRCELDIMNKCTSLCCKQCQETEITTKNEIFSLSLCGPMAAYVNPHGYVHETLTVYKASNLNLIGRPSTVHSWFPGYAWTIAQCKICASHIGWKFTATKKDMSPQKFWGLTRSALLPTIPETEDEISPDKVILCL

[15] = Toxicity in BALB/c mouse allografted with mouse 4T1 cells assessed as abnormality in biochemical analysis at 60 mg/kg, ip qd for 15 days in presence of Paclitaxel; type: organism-based; conditions: in vivo, 360 h, time 15 day
[16] = target: T1, Protein cereblon/Programmed cell death 1 ligand 1 (Mus musculus); test: PROTAC activity at CRBN/PD-L1 in mouse 4T1 cells assessed as reduction in green fluorescence in cell membrane at 0.312 uM incubated for 24 hrs by immunofluorescence analysis; type: cell membranes
[17] = Cytotoxicity against BALB/c mouse PBMC cells at <=0.312 uM incubated for 48 hrs by MTT assay; type: toxicity, cell-based
[18] = Toxicity in BALB/c mouse allografted with mouse 4T1 cells assessed as pathological change in heart at 30 to 60 mg/kg, ip qd for 15 days by H and E staining based analysis; type: organism-based; conditions: in vivo, 360 h, dose 30-60 mg/kg, time 15 day
[19] = Tmax in Sprague-Dawley rat at 30 mg/kg, ip measured for 24 hrs by LC-MS/MS analysis; type: ADME, organism-based; conditions: in vivo
[20] = Half life in Sprague-Dawley rat at 3 mg/kg, iv measured for 24 hrs by LC-MS/MS analysis; type: ADME, organism-based; conditions: in vivo
[21] = Volume of distribution at steady state in Sprague-Dawley rat at 3 mg/kg, iv measured for 24 hrs by LC-MS/MS analysis; type: ADME, organism-based; conditions: in vivo, read-out: Vdss
4T1 [22] = test: Antitumor activity against mouse 4T1 cells allografted in BALB/c mouse assessed as reduction in tumor volume at 60 mg/kg, ip qd for 15 days in presence of Paclitaxel; type: functional, organism-based; conditions: time 15.0 day
4T1 [23] = test: Antitumor activity against mouse 4T1 cells allografted in BALB/c mouse assessed as reduction in tumor volume at 30 to 60 mg/kg, ip qd for 15 days; type: functional, organism-based; conditions: dose 30-60 mg/kg, time 15.0 day
[24] = Toxicity in BALB/c mouse allografted with mouse 4T1 cells assessed as body weight loss at 60 mg/kg, ip qd for 15 days in presence of Paclitaxel; type: organism-based; conditions: in vivo, 360 h, time 15 day
4T1 [25] = test: In vivo PROTAC activity at CRBN/PD-L1 in mouse 4T1 cells allografted in BALB/c mouse assessed as protein degradation at 30 to 60 mg/kg, ip qd for 15 days by IHC analysis; type: functional, organism-based; conditions: dose 30-60 mg/kg, time 15.0 day
[26] = target: T1, Protein cereblon/Programmed cell death 1 ligand 1 (Mus musculus); test: PROTAC activity at CRBN/PD-L1 in mouse 4T1 cells assessed as protein degradation at 0.312 uM incubated for 24 hrs in presence of siCRBN by Western blot analysis; type: cell-based

Compound: COc1nc(OCc2cccc(-c3ccccc3)c2C)ccc1CNCCNC(=O)CCCCCCCCNC(=O)COc1ccc(C2CCC(=O)NC2=O)cc1 (configuration not stated)
- Activity (4T1 [1]): Active
- Activity (4T1 [2]): 31.8%
- Activity [3]: Active
- Activity [4]: Non-Toxic
- Activity [5]: Non-Toxic
- Activity [6]: Non-Toxic
- Activity [7]: Non-Toxic
- Activity [8]: Non-Toxic
- Activity (4T1 [9]): Active
- Activity [10]: Non-Toxic
- Activity [11]: Non-Toxic
- Activity [12]: Non-Toxic
- inhibition in vivo at 60 mg/kg (4T1 [13]): 86.7%
- Activity (4T1 [14]): 72.3%
- pKd (Protein cereblon): 3.88
- Activity [15]: Non-Toxic
- Activity [16]: Active
- Activity [17]: Non-Toxic
- Activity [18]: Non-Toxic
- Tmax [19]: 2 h
- half-life [20]: 57.1 min
- Vd [21]: 23 L/kg
- Activity (4T1 [22]): Active
- Activity (4T1 [23]): Active
- Activity [24]: Non-Toxic
- Activity (4T1 [25]): Active
- Activity [26]: inactive
